Results taken from ChEMBL document CHEMBL1649263, “In vitro activity of a new quinoline derivative, ER-2, against clinical isolates of Mycoplasma pneumoniae and Mycoplasma hominis” (2009).
≈ marks a conversion by molar mass, not a printed value.

What was measured:
[1] = tested on: Mycoplasmoides pneumoniae; assay: Antimicrobial activity against Mycoplasma pneumoniae by agar dilution method; assay type: functional
Metamycoplasma hominis = assay: Antimicrobial activity against Mycoplasma hominis by agar dilution method; assay type: functional

Row | SMILES | MIC50 [1] [µg/mL] | MIC90 [1] [µg/mL] | MIC50 (Metamycoplasma hominis) [µg/mL] | MIC90 (Metamycoplasma hominis) [µg/mL] | MIC [1] [µg/mL] | MIC (Metamycoplasma hominis) [µg/mL]
1 | CC[C@H]1OC(=O)[C@H](C)[C@@H](O[C@H]2C[C@@](C)(OC)[C@@H](O)[C@H](C)O2)[C@H](C)[C@@H](O[C@@H]2O[C@H](C)C[C@H](N(C)C)[C@H]2O)[C@](C)(O)C[C@@H](C)CN(C)[C@H](C)[C@@H](O)[C@]1(C)O [AZITHROMYCIN] | 0.001 (≈ 0.00134 µM) | 0.016 (≈ 0.0214 µM) | – | – | 0.001 (≈ 0.00134 µM) | –
2 | CCC[C@@H]1C[C@@H](C(=O)N[C@@H]([C@H]2O[C@H](SC)[C@H](O)[C@@H](O)[C@H]2O)[C@H](C)Cl)N(C)C1 [CLINDAMYCIN] | – | – | 0.032 (≈ 0.0753 µM) | 0.032 (≈ 0.0753 µM) | – | –
3 | C[C@H]1COc2c(N3CCN(C)CC3)c(F)cc3c(=O)c(C(=O)O)cn1c23.C[C@H]1COc2c(N3CCN(C)CC3)c(F)cc3c(=O)c(C(=O)O)cn1c23.O [LEVOFLOXACIN] | 1 | 1 | 0.25 | 0.5 | 0.012 | 0.1
4 | COc1c(N2C[C@@H]3CCCN[C@@H]3C2)c(F)cc2c(=O)c(C(=O)O)cn(C3CC3)c12 [MOXIFLOXACIN] | 0.06 (≈ 0.149 µM) | 0.12 (≈ 0.299 µM) | 0.06 (≈ 0.149 µM) | 0.06 (≈ 0.149 µM) | 0.06 (≈ 0.149 µM) | 0.063 (≈ 0.157 µM)
5 | CN(C)[C@@H]1C(O)=C(C(N)=O)C(=O)[C@@]2(O)C(O)=C3C(=O)c4c(O)cccc4[C@@](C)(O)[C@H]3C[C@@H]12 [TETRACYCLINE] | 1 (≈ 2.25 µM) | 1 (≈ 2.25 µM) | 8 (≈ 18 µM) | 8 (≈ 18 µM) | – | –

Now from value to molecule, other results behind:

Row | MIC50 [1] [µg/mL] | MIC90 [1] [µg/mL] | MIC50 (Metamycoplasma hominis) [µg/mL] | MIC90 (Metamycoplasma hominis) [µg/mL] | SMILES | MIC [1] [µg/mL] | MIC (Metamycoplasma hominis) [µg/mL]
6 | 0.001 (≈ 0.00257 µM) | 0.016 (≈ 0.0411 µM) | 0.032 (≈ 0.0823 µM) | 0.06 (≈ 0.154 µM) | CN1C(=O)C2CC3C4Nc5ccc(Cl)cc5C(C)(C)C4CN3C2N(C)C1=O (stereo not given) | 0.001 (≈ 0.00257 µM) | –
7 | 4 (≈ 12.1 µM) | 4 (≈ 12.1 µM) | 1 (≈ 3.02 µM) | 1 (≈ 3.02 µM) | O=C(O)c1cn(C2CC2)c2cc(N3CCNCC3)c(F)cc2c1=O [CIPROFLOXACIN] | – | –
8 | 0.25 | 0.25 | 2 | 2 | C[C@H]1c2cccc(O)c2C(=O)C2=C(O)[C@]3(O)C(=O)C(C(N)=O)=C(O)[C@@H](N(C)C)[C@@H]3[C@@H](O)[C@@H]21.O [DOXYCYCLINE] | – | –
9 | 0.125 (≈ 0.333 µM) | 0.125 (≈ 0.333 µM) | 0.125 (≈ 0.333 µM) | 0.125 (≈ 0.333 µM) | COc1c(N2CCNC(C)C2)c(F)cc2c(=O)c(C(=O)O)cn(C3CC3)c12 (stereo not given) [GATIFLOXACIN] | – | –
10 | 0.032 (≈ 0.0822 µM) | 0.125 (≈ 0.321 µM) | – | – | CO/N=C1\CN(c2nc3c(cc2F)c(=O)c(C(=O)O)cn3C2CC2)CC1CN (stereo not given) [GEMIFLOXACIN] | – | –
